In PMC3306394 (PLoS ONE, 2012):
Where two headings read alike, the source gives them in different places.

Key:
[1] = target: T1, wild-type HpSK (Helicobacter pylori shikimate kinase) (Helicobacter pylori, UniProt P56073); conditions: wild-type enzyme, cited from earlier work
T1 construct: His6 (own knowledge: the pQE30 vector gives an N-terminal MRGS-His6 tag); made in house; host or cells: E. coli (printed for the mutants; same procedures as for wild type)

HpSK M10A [2] = target: T2, HpSK M10A (Helicobacter pylori, UniProt P56073, M10A); assay type: biochemical; conditions: apparent value
T2 construct: His6 (own knowledge: pQE30 vector gives an N-terminal MRGS-His6 tag); made in house; host or cells: E. coli
T2 sequence (P56073 whole entry M10A): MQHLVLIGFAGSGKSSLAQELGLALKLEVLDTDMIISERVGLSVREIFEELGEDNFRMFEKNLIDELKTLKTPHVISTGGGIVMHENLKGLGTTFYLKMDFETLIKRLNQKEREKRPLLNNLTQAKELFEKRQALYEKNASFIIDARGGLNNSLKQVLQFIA
Method: (§1) SK activity was determined by coupling the release of ADP from the SK-catalyzed reaction to the oxidation of NADH using pyruvate kinase (EC 2.7.1.40) and lactate dehydrogenase (EC 1.1.1.27) as coupling enzymes. […] All assays were conducted in a 96-well microplate and analyzed with a spectrophotometer (FLUOstar OPTIMA, BMG LABTECH). The relative activity of wild-type HpSK was set to 100%.

HpSK F48Y [3] = target: T3, HpSK F48Y (Helicobacter pylori, UniProt P56073, F48Y); assay type: biochemical
T3 construct: His6 (own knowledge: pQE30 vector gives an N-terminal MRGS-His6 tag); made in house; host or cells: E. coli
T3 sequence (P56073 whole entry F48Y): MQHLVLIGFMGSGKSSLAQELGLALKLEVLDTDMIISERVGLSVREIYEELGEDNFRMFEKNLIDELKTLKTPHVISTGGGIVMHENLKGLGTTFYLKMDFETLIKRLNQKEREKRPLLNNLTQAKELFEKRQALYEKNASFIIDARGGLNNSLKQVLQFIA
Method: as §1, with “enzymes. Shikimate-dependent oxidation of NADH was monitored by a decrease in A340 (ε = 6,200 M^−1 cm^−1).” for “enzymes.”

HpSK E114A [4] = target: T4, HpSK E114A (Helicobacter pylori, UniProt P56073, E114A); assay type: biochemical
T4 construct: His6 (own knowledge: pQE30 vector gives an N-terminal MRGS-His6 tag); made in house; host or cells: E. coli
T4 sequence (P56073 whole entry E114A): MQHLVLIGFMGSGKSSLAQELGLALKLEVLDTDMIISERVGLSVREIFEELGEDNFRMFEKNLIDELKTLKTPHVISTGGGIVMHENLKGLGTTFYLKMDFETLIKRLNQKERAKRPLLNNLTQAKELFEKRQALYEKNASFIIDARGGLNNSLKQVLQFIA
Method: as §1, with “enzymes. Shikimate-dependent oxidation of NADH was monitored by a decrease in A340 (ε = 6,200 M^−1 cm^−1).” for “enzymes.”

HpSK R116A = target: T5, HpSK R116A (Helicobacter pylori, UniProt P56073, R116A); assay: Isothermal titration calorimetry, R116A; assay type: binding; conditions: ITC, 25°C, ND = not detectable
T5 construct: His6 (own knowledge: pQE30 vector gives an N-terminal MRGS-His6 tag); made in house; host or cells: E. coli
T5 sequence (P56073 whole entry R116A): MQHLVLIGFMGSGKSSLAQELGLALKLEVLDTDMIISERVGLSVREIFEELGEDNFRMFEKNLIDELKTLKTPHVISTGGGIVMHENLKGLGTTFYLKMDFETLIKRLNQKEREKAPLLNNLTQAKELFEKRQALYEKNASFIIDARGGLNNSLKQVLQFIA
Method: (§2) Titration experiments were performed by ITC using an iTC200 or VP-ITC instrument (MicroCal, Piscataway, NJ, USA), and a 0.2-ml (iTC200) or 1.4-ml (VP-ITC) sample cell containing the macromolecule solution. All proteins were prepared in a buffer containing 20 mM potassium phosphate, pH 7.3. Prior to the experiment, samples were filtered and degassed under vacuum for 10 min in a Thermo Vac system (Microcal). The sample cell was filled with sample protein solution (15 µM) or the working buffer. Procedures of iTC200 titrations with a ligand (450 µM) were as follows: an initial 1-µl injection (not included in data analysis) followed by 19 injections of 2 µl each, with 2-min intervals between injections. Similar procedures for VP-ITC titrations were also performed: an initial 2-µl injection followed by 24 injections of 10 µl each, with 3-min intervals between injections. The experiments were performed with a constant stirrer speed of 1000 rpm (iTC200) or 290 rpm (VP-ITC) at 25°C. The binding isotherms were fitted to a one-site binding model to obtain the thermodynamic parameters with the initial point discarded. Data analysis was conducted using Origin 7 software.

HpSK E114A [5] = target: T4, HpSK E114A; assay: Isothermal titration calorimetry, E114A; assay type: binding; conditions: ITC, 25°C, ND = not detectable
Method: as §2

HpSK R57A = target: T6, HpSK R57A (Helicobacter pylori, UniProt P56073, R57A); assay: Isothermal titration calorimetry, R57A; assay type: binding; conditions: ITC, 25°C, ND = not detectable
T6 construct: His6 (own knowledge: pQE30 vector gives an N-terminal MRGS-His6 tag); made in house; host or cells: E. coli
T6 sequence (P56073 whole entry R57A): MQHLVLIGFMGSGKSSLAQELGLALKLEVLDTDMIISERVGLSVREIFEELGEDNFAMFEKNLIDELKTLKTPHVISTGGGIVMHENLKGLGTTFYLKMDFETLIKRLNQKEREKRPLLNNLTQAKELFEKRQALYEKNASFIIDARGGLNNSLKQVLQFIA
Method: as §2

HpSK R132K = target: T7, HpSK R132K (Helicobacter pylori, UniProt P56073, R132K); assay: Isothermal titration calorimetry, R132K; assay type: binding; conditions: ITC, 25°C, ND = not detectable
T7 construct: His6 (own knowledge: pQE30 vector gives an N-terminal MRGS-His6 tag); made in house; host or cells: E. coli
T7 sequence (P56073 whole entry R132K): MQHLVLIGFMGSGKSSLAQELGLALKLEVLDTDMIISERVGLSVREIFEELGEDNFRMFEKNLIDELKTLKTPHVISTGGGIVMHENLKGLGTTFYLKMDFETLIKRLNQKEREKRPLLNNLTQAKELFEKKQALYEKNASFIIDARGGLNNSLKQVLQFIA
Method: as §2

HpSK R132A = target: T8, HpSK R132A (Helicobacter pylori, UniProt P56073, R132A); assay: Isothermal titration calorimetry, R132A; assay type: binding; conditions: ITC, 25°C, ND = not detectable
T8 construct: His6 (own knowledge: pQE30 vector gives an N-terminal MRGS-His6 tag); made in house; host or cells: E. coli
T8 sequence (P56073 whole entry R132A): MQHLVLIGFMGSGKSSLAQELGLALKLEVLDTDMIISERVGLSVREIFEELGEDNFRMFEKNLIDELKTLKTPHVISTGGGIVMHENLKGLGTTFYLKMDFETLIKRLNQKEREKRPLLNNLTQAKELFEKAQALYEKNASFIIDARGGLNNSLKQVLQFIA
Method: as §2

HpSK R57K = target: T9, HpSK R57K (Helicobacter pylori, UniProt P56073, R57K); assay: Isothermal titration calorimetry, R57K; assay type: binding; conditions: ITC, 25°C, ND = not detectable
T9 construct: His6 (own knowledge: pQE30 vector gives an N-terminal MRGS-His6 tag); made in house; host or cells: E. coli
T9 sequence (P56073 whole entry R57K): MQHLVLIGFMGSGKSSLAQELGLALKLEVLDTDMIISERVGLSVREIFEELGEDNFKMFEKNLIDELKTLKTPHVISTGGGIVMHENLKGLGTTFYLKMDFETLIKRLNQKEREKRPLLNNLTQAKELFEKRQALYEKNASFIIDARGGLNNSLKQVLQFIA
Method: as §2

HpSK F48Y [6] = target: T3, HpSK F48Y; assay: Isothermal titration calorimetry, F48Y; assay type: binding; conditions: ITC, 25°C, ND = not detectable
Method: as §2

HpSK D33A = target: T10, HpSK D33A (Helicobacter pylori, UniProt P56073, D33A); assay: Isothermal titration calorimetry, D33A; assay type: binding; conditions: ITC, 25°C, ND = not detectable
T10 construct: His6 (own knowledge: pQE30 vector gives an N-terminal MRGS-His6 tag); made in house; host or cells: E. coli
T10 sequence (P56073 whole entry D33A): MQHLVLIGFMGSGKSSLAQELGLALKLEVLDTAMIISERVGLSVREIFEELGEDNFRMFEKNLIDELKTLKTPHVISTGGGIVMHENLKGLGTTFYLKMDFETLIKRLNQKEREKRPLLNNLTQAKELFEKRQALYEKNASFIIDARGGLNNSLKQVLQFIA
Method: as §2

HpSK R116K = target: T11, HpSK R116K (Helicobacter pylori, UniProt P56073, R116K); assay: Isothermal titration calorimetry, R116K; assay type: binding; conditions: ITC, 25°C, ND = not detectable
T11 construct: His6 (own knowledge: pQE30 vector gives an N-terminal MRGS-His6 tag); made in house; host or cells: E. coli
T11 sequence (P56073 whole entry R116K): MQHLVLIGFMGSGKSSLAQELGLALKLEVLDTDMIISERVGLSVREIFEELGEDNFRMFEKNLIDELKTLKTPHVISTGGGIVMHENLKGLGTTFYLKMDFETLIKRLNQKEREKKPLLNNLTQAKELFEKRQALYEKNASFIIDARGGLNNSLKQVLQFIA
Method: as §2

HpSK M10A [7] = target: T2, HpSK M10A; assay: Isothermal titration calorimetry, M10A; assay type: binding; conditions: ITC, 25°C, ND = not detectable
Method: as §2

HpSK F48A = target: T12, HpSK F48A (Helicobacter pylori, UniProt P56073, F48A); assay: Isothermal titration calorimetry, F48A; assay type: binding; conditions: ITC, 25°C, ND = not detectable
T12 construct: His6 (own knowledge: pQE30 vector gives an N-terminal MRGS-His6 tag); made in house; host or cells: E. coli
T12 sequence (P56073 whole entry F48A): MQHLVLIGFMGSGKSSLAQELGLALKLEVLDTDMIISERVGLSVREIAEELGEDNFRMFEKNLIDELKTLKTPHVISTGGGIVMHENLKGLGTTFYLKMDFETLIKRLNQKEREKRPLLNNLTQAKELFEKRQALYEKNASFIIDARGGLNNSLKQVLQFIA
Method: as §2

HpSK D33E = target: T13, HpSK D33E (Helicobacter pylori, UniProt P56073, D33E); assay: Isothermal titration calorimetry, D33E; assay type: binding; conditions: ITC, 25°C, ND = not detectable
T13 construct: His6 (own knowledge: pQE30 vector gives an N-terminal MRGS-His6 tag); made in house; host or cells: E. coli
T13 sequence (P56073 whole entry D33E): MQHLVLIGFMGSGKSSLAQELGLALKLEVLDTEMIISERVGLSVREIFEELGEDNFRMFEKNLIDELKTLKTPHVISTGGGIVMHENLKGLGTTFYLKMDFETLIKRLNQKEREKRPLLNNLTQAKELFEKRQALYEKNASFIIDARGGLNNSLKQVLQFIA
Method: as §2

wild-type HpSK = target: T14, wild-type HpSK (Helicobacter pylori, UniProt P56073); assay: Isothermal titration calorimetry, wild-type HpSK; assay type: binding
T14 construct: His6 (own knowledge: the pQE30 vector gives an N-terminal MRGS-His6 tag); made in house; host or cells: E. coli (printed for the mutants; same procedures as for wild type)
T14 sequence (P56073 whole entry): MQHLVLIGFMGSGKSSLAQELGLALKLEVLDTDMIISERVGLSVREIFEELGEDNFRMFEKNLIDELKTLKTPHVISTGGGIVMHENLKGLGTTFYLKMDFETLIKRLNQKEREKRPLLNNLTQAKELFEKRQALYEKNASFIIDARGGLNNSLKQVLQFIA
Method: as §2

[8] = apparent value, read-out: Km (MgATP)
[9] = read-out: Km (shikimate), apparent value

T1 sequence (P56073 whole entry): as above

**Q.** Which results are given for Nc1ncnc2c1ncn2[C@@H]1O[C@H](COP(=O)(O)OP(=O)(O)OP(=O)(O)O)[C@@H](O)[C@H]1O [ATP]?
**A.** V max(MgATP) [1]: 26 ± 1 µmol/min/mg; Km ([1]; read-out: Km (MgATP)): 101 µM; V max(MgATP) (HpSK M10A [2]): 26 ± 1 µmol/min/mg; Km (HpSK M10A [2]; read-out: Km (MgATP)): 293 µM; V max(MgATP) (HpSK F48Y [3]; apparent value): 17 ± 1 µmol/min/mg; Km (HpSK F48Y [3]; [8]): 231 µM; V max(MgATP) (HpSK E114A [4]; apparent value): 26 ± 2 µmol/min/mg; Km (HpSK E114A [4]; [8]): 143 µM

**Q.** With O=C(O)C1=C[C@@H](O)[C@@H](O)[C@H](O)C1 [shikimate, shikimic acid] as the compound, how does the Kd (HpSK R116A) read?
**A.** The Kd was “no heat release”.

**Q.** And the Kd (HpSK E114A [5])?
**A.** The Kd was 330 ± 30 nM.

**Q.** And the Kd (HpSK R57A)?
**A.** The Kd was “no heat release”.

**Q.** What about the Km ([1]; read-out: Km (shikimate)) of the same compound?
**A.** The Km was 60 µM.

**Q.** And the “V max(shikimate)” value [1]?
**A.** Its value is 22 ± 1 µmol/min/mg.

**Q.** And the Kd (HpSK R132K)?
**A.** The Kd was “no heat release”.

**Q.** And the Kd (HpSK R132A)?
**A.** The Kd was “no heat release”.

**Q.** And the Kd (HpSK R57K)?
**A.** The Kd was “no heat release”.

**Q.** What about the “V max(shikimate)” value (HpSK M10A [2]) of the same compound?
**A.** The value was 16 ± 1 µmol/min/mg.

**Q.** And the Kd (HpSK F48Y [6])?
**A.** The Kd was 5200 ± 400 nM.

**Q.** What about the Kd (HpSK D33A) of the same compound?
**A.** The Kd was “no heat release”.

**Q.** And the Kd (HpSK R116K)?
**A.** Its Kd is “no heat release”.

**Q.** What about the Kd (HpSK M10A [7]) of the same compound?
**A.** The Kd was 34000 ± 7000 nM.

**Q.** And the Kd (HpSK F48A)?
**A.** Its Kd is “lost binding activity”.

**Q.** And the “V max(shikimate)” value (HpSK F48Y [3]; apparent value)?
**A.** Its value is 13 ± 2 µmol/min/mg.

**Q.** What about the Km (HpSK F48Y [3]; [9]) of the same compound?
**A.** Its Km is 291 µM.

**Q.** And the “V max(shikimate)” value (HpSK E114A [4]; apparent value)?
**A.** The value was 23 ± 1 µmol/min/mg.

**Q.** What about the Km (HpSK E114A [4]; [9]) of the same compound?
**A.** Its Km is 39 µM.

**Q.** And the Kd (HpSK D33E)?
**A.** Its Kd is “no heat release”.

**Q.** What about the Kd (wild-type HpSK) of the same compound?
**A.** Its Kd is 320 ± 70 nM.
